For 2 compounds, dose excreted and Drug uptake results are on record in ChEMBL document CHEMBL1138313, “Cyclization of the acyl glucuronide metabolite of a neutral endopeptidase inhibitor to an electrophilic glutarimide: synthesis, reactivity, and mechanistic analysis” (J Med Chem, 2007).

Assay type in all cases: ADME, organism-based
A short description of series [1]: Biodistribution in Wistar rat bile at 50 umol/kg, iv after 1 hr. The conditions noted are these: read-out: Drug uptake.
Series [2] is described as follows: Biodistribution in Wistar rat bile at 50 umol/kg, iv after 5 hrs. As to conditions: read-out: Drug uptake.
Another series concerns Rattus norvegicus. Put plainly: Biodistribution in Wistar rat bile at 15 umol/kg, iv. As to conditions: in vivo.
Series [3] can be described thus: Biodistribution in Wistar rat urine at 15 umol/kg, iv after 5 hrs. As to conditions: read-out: Drug uptake.
The nature of series [4]: Biodistribution in Wistar rat bile assessed as drug elimination at 15 umol/kg, iv after 5 hrs. The conditions noted are these: read-out: Drug uptake.
A further series deals with Plasma. Put plainly: Biodistribution in Wistar rat plasma per mL at 15 umol/kg, iv after 5 hrs. As to conditions: in vivo.
Series [5] can be described thus: Biodistribution in Wistar rat bile assessed as drug elimination at 15 umol/kg, iv after 1 hr. As to conditions: read-out: Drug uptake.

As for `CCC[C@@H]1CC2(CCCC2)C(=O)N(c2nnc(CC)s2)C1=O`, in series [1], the dose excreted at 1 h was found to be 4.5%. For the same compound, in series [2], the dose excreted at 5 h worked out at 11%. In the series with Rattus norvegicus, the Drug uptake was 6%.
Consider `CCC[C@H](CC1(C(=O)Nc2nn[14c](CC)s2)CCCC1)C(=O)O`, for which the dose excreted at 5 h in series [3] turned out to be 4.9%; in series [4], 75.1%. For the same compound, the Drug uptake in the series on Plasma was 0.3 %ID. In addition, in series [5], the dose excreted at 1 h was 28.7%.
